# Measurements published in patent US11517528B2, “Lipid membrane structure for delivery into siRNA cell” (NATIONAL UNIVERSITY CORPORATION HOKKAIDO UNIVERSITY, priority 2017, dated 2022).
# Assays:
# [1] = system: HeLa cells stably expressing dual-luciferase (HeLa-dluc); experiment: in vitro knockdown activity, dual-luciferase assay; format: cell-based
# Description: Hemolysis activity, in vitro knockdown activity, and in vivo F7 knockdown activity, which are indicators of endosome escape activity, were measured. Regarding the hemolysis activity, mouse erythrocytes and LNPs were mixed in a buffer solution adjusted to pH 6.5, the mixture was incubated at 37° C. for 30 minutes and then centrifuged, and an absorbance of the supernatant at 545 nm was measured. Hemolysis efficiency of each sample was calculated by respectively using a sample to which LNPs were not added and a sample to which Triton X-100 having a final concentration of 0.5% was added, as a negative control and a positive control. Regarding the in vitro knockdown activity, LNPs loaded with siRNA against luciferase were added to HeLa cells stably expressing dual-luciferase (HeLa-dluc) at various concentrations, and knockdown efficiency was calculated 24 hours after the addition by dual-luciferase assay. […] Regarding the in vivo F7 knockdown activity, 0.1 mg siRNA/kg of LNPs loaded with siRNA against F7 were intravenously administered to an ICR mouse (4 weeks old, female), and F7 enzyme activity in plasma was measured 24 hours after the administration. Each activity against pKa was plotted (FIG. 3).
# The influence of hydrophobic scaffolds on siRNA introduction activity of small LNPs with an average particle diameter of about 35 nm was examined. […]
# [2] = cationic lipid content in liver and spleen by LC/MS; format: in vivo, mouse; details: 1 mg siRNA/kg of LNP i.v., ICR mice; until 72 hours
# Description: 1 mg siRNA/kg of Each LNP was intravenously administered to ICR mice (4 weeks old, female), the liver and spleen were recovered over time, and each cationic lipid was quantitatively determined by LC/MS.
compound,measurement,setting,value
"CCCCC/C=C\C/C=C\CCCCCCCCC(O)(CCCCCCCC/C=C\C/C=C\CCCCC)CCCCOC(=O)C1CCN(C)CC1 [CL15A, (14Z,17Z)-5-Hydroxy-5-((9Z,12Z)-octadeca-9,12-dien-1-yl)tricosa-14,17-dien-1-yl 1-methylpiperidine-4-carboxylate]",luciferase knockdown efficiency,"[1]; 30 nM siRNA, small LNPs, average particle diameter about 35 nm, HeLa-dluc",≤ 30%
"CCCCCCCC/C=C\CCCCCCCC(=O)OCCCCCCC(O)(CCCCCCOC(=O)CCCCCCC/C=C\CCCCCCCC)CCCCOC(=O)C1CCN(C)CC1 [CL15H6, 7-Hydroxy 7-(4-((1-methylpiperidine-4-carbonyl)oxy)butyl)tridecane-1,13-diyl dioleate]",in vitro knockdown activity,"[1]; LNPs loaded with siRNA against luciferase, 24 hours, compared with CL15A",about three times higher activity than that of CL15A
CCCCC/C=C\C/C=C\CCCCCCCCOC1(OCCCCCCCC/C=C\C/C=C\CCCCC)CCN(C)CC1 [YSK05],tissue content of cationic lipid in liver and spleen over time,[2],almost constant until 72 hours after the administration
